In patent US11548875B2, “Inhibitor compounds for male contraception” (University of Washington, priority 2018, dated 2023):
Where two headings read alike, the source gives them in different places.

What was measured:
[1] = biological target: T1, ALDH1A1 (Homo sapiens, UniProt P00352); assay: Inhibitor screening using purified enzymes: ALDH1A1 activity, retinoic acid production by HPLC; format: biochemical; settings: purified enzyme
T1 sequence (P00352 1-501): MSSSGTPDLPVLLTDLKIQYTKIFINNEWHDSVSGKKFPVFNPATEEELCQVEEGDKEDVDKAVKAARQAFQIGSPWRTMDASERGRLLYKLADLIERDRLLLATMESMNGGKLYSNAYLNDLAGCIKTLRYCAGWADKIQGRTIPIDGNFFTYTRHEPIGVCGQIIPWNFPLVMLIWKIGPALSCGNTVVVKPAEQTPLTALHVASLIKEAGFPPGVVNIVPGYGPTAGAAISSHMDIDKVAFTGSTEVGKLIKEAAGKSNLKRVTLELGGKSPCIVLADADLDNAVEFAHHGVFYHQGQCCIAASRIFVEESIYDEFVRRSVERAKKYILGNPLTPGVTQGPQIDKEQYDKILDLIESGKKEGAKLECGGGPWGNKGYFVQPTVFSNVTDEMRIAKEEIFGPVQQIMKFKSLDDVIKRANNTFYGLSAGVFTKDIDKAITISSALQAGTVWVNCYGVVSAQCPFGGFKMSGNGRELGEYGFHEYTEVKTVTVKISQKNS
Description: (§1) ALDHs were cloned into bacterial expression vector for in vitro enzyme assays and into mammalian expression vectors for cell-based enzyme assays. Human ALDH1A1 cDNA and human ALDH2 cDNA were purchased from OriGene (SC321535) and Open Biosystems (MHS4771-99611182), respectively. and human ALDH1A2 cDNA was cloned from human testis RNA using RT-PCR (Population Division of the Department of Economic and Social Affairs of the United Nations Secretariat. World Population prospects: the 2008 revision. Available at http://www.un.org/esa/population/ (Retrieved Sep. 30, 2011)). For bacterial expression, an open reading frame of ALDH1A1 and ALDH2 were subcloned into the pETite vector (Lucigen) with a 5′ histidine-tag and that of ALDH1A2 into a pET28 vector (Novagen) with a 3′ histidine-tag. Correct frame and sequences were verified through DNA sequencing (UW DNA sequencing facility). ALDHs were induced with 1 mM IPTG and purified using His.Bind resin (Novagen, San Diego, Calif.) and stored in a buffer containing 20 mM Hepes (pH 8), 150 mM KCl and 1 mM EDTA as previously described (Fierce, Y., de Morais Vieira, M., Piantedosi, R., Wyss, A., Blaner, W. S., and Paik, J. (2008) In vitro and in vivo characterization of retinoid synthesis from beta-carotene. Archives of biochemistry and biophysics 472, 126-138).
(§2) ALDH1A1 and ALDH1A2 activity was determined as previously reported (Beedle M T, Stevison F, Zhong G, Topping T, Hogarth C, Isoherranen N, Griswold M D. Sources of All-Trans Retinal Oxidation Independent of the Aldehyde Dehydrogenase 1A Isozymes Exist in the Postnatal Testis. Biol Reprod. 2018 Sep. 21. doi: 10.1093/biolre/ioy200). Briefly, purified enzymes were incubated in a buffer containing 10 mM HEPES buffer (pH 8.0), 150 mM potassium chloride and 2 mM EDTA with 2 mM NAD. Retinoic acid production was determined using HPLC as previously reported (Amory J K, Muller C H, Shimshoni A J, Isoherranen N, Paik J, Moreb J S, Amory D W, Evanoff R, Goldstein A S, Griswold M D. Suppression of spermatogenesis by bisdichloroacetyldiamines is mediated by inhibition of testicular retinoic acid biosynthesis. Journal of Andrology 2011; 32(1):111-119). Inhibitors were diluted in DMSO and added to the reactions. […] For initial screening of inhibitors for ALDH1A2, 1 μg ALDH1A2, 5 μM all-trans-retinal and 5 μM inhibitors were incubated for 15 min at 37° C. […] For this purpose, 0.5 μg ALDH1A2 and […] were incubated for 5 minutes at 37° C. with varying concentrations of inhibitors. To determine specificity toward ALDH1A2, the IC50 for […]

[2] = biological target: T2, ALDH1A2 (Homo sapiens, UniProt O94788); assay: Inhibitor screening using purified enzymes: ALDH1A2 activity, retinoic acid production by HPLC (5 uM initial screen, then IC50); format: biochemical; design: histidine-tag (C); made in house; host or cells: bacterial expression (pET28 vector, IPTG induction); settings: purified enzyme
T2 sequence (O94788 1-518): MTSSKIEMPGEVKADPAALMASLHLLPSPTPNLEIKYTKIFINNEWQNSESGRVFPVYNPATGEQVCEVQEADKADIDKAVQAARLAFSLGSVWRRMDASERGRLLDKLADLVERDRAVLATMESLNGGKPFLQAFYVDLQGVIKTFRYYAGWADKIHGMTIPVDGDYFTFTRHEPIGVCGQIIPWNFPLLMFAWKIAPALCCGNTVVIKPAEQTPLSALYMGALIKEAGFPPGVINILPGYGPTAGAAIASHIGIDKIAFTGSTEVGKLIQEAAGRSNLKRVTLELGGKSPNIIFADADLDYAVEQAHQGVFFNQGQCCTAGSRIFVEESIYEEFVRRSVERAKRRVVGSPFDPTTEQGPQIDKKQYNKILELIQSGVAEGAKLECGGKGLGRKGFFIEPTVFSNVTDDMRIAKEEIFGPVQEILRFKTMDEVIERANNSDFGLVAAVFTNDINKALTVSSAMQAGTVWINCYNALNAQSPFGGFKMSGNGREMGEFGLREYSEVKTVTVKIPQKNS
Description: as §1, §2

[3] = biological target: T3, ALDH2 (Homo sapiens, UniProt P05091); assay: Purified ALDH2 assay with propanal, NADH fluorescence; format: biochemical; settings: purified enzyme
T3 construct: histidine-tag (N); made in house; host or cells: bacterial expression (pETite vector, IPTG induction)
T3 sequence (P05091 18-517): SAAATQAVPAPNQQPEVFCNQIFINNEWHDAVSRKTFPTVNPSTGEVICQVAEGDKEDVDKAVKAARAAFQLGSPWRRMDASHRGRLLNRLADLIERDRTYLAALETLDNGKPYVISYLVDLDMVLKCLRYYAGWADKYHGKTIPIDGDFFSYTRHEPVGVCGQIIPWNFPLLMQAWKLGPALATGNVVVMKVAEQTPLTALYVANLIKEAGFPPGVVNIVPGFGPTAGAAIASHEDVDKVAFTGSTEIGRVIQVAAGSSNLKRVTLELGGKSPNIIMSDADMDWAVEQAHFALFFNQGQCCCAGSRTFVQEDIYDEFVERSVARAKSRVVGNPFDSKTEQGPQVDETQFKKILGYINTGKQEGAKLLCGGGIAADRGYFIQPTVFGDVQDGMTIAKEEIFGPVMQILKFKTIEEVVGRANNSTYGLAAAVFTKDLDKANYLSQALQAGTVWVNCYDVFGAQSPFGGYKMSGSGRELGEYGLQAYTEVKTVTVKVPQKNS
Description: as §1, with “126-138). […]” for “126-138).”
For this, 2 μg purified ALDH2, 20 μM propanal and varying concentrations of inhibitors were incubated at room temperature. Enzyme activity was determined by measuring fluorescence of NADH (Ex, 350 nm/Em, 460 nm) using a Victor3 plate reader (PerkinElmer), and initial velocity was calculated from two consecutive readings over 1 minute.

[4] = biological target: T1, ALDH1A1; assay: Cell-based enzyme assay, retinoic acid production in ALDH1A1/H1299 cells
Procedure: (§3) ALDH1A1 cDNA clone was purchased transfection-ready, and ALDH1A2 full-length cDNA was subcloned into pcDNA3, a mammalian expression vector. ALDH1A1 and ALDH1A2 were transfected into H1299 cells (CRL5803, ATCC) using Lipofectamine 3000 (Invitrogen) following the manufacturer's instructions. Stably transfected cells were selected with G418 (1.2 mg/ml) and referred to as ALDH1A1/H1299 and ALDH1A2/H1299. For the cell-based enzyme assays,
(§4) H1299 cells were routinely grown in RPMI-1640 (ATCC) supplemented with 10% fetal bovine serum (Atlanta Biologicals) in a 37 C, 5% CO2, moisture-saturated atmosphere. H1299, ALDH1A1/H1299 and ALDH1A2/H1299 cells were seeded into 12-well plates (1×10^5 cells/well) and grown for 2 days to confluence. Confluent cells were treated for 20 hours in the above media excluding serum with 2 μM all-trans-retinal, and varying concentrations of inhibitors. Serum-free media was used for the treatment period to avoid retinoic acid in serum. Retinoic acid concentrations were determined from cells and media, and specificity of inhibitors was determined by comparing retinoic acid levels in the presence and absence of the inhibitors in ALDH1A1- vs. ALDH1A2-expressing cells.

[5] = biological target: T2, ALDH1A2; assay: Cell-based enzyme assay, retinoic acid production in ALDH1A2/H1299 cells
Procedure: as §3, §4

Row | Compound | IC50 [1] [µM] | IC50 [2] [µM] | IC50 [3] [µM] | EC50 ([4]; cell-based) [µM] | EC50 ([5]; cell-based) [µM] | EC50 [4] [µM] | EC50 [5] [µM]
1 | 1-[4-(4-Nitrophenyl)-3-(azocan-1-yl)]piperazin-1-yl](1-methyl-1H-pyrrol-2-yl)methanone [Compound N104] | 0.141 | 6.5 | – | – | – | – | –
2 | O=C(Nc1cccc(F)c1)c1cn(-c2ccccc2)nc1-c1ccc(CBr)cc1 [Compound 8-44, 3-[4-(Bromomethyl)phenyl]-N-(3-fluorophenyl)-1-phenyl-1H-pyrazole-4-carboxamide] | 3.9 | 0.72 | – | – | – | – | –
3 | CCN(Cc1nn(-c2ccccc2)cc1C(=O)Nc1cccc(F)c1)C(=O)C(Cl)Cl [Compound 8-54, 3-{[(Dichloroacetyl)(ethyl)amino]methyl}-N-(3-fluorophenyl)-1-phenyl-1H-pyrazole-4-carboxamide] | 0.092 | 3.9 | – | – | – | – | –
4 | CCOC(=O)c1cn(-c2ccccc2)nc1-c1ccc(S(C)(=O)=O)cc1 [Compound 232, Ethyl 3-[4-(methylsulfonyl)phenyl]-1-phenyl-1H-pyrazole-4-carboxylate] | – | – | > 5 | 0.723 | 0.317 | – | –
5 | CS(=O)(=O)c1ccc(-c2nn(-c3ccc(F)cc3)cc2C(=O)Nc2cccc(C(F)(F)F)c2)cc1 [Compound 256, N-(3-Trifluoromethylphenyl)-1-(4-fluorophenyl)-3-[4-(methylsulfonyl)phenyl]-1H-pyrazole-4-carboxamide] | – | 0.112 | – | 46 | 0.011 | – | –
6 | COC(=O)c1ccc(-n2cc(C(=O)Nc3cccc(F)c3)c(-c3ccc(S(C)(=O)=O)cc3)n2)cc1 [Compound 273, Methyl 4-{4-[(3-fluorophenyl)carbamoyl]-3-[4-(methylsulfonyl)phenyl]-1H-pyrazol-1-yl} benzoate] | – | 0.179 | – | 5.63 | 0.045 | – | –
7 | CS(=O)(=O)c1ccc(-c2nn(-c3ccc(C=O)cc3)cc2C(=O)Nc2cccc(F)c2)cc1 [Compound 280, 1-(4-Formylphenyl)-3-[4-(methylsulfonyl)phenyl]-N-(3-fluorophenyl)-1H-pyrazole-4-carboxamide] | – | > 5 | – | > 20 | 0.3 | – | –
8 | CC(=O)Oc1ccccc1OC(=O)c1cn(-c2cccc(Cl)c2)nc1-c1ccc(S(C)(=O)=O)cc1 [Compound 291, 2-(Acetyloxy)phenyl 1-(3-chlorophenyl)-3-[4-(methylsulfonyl)phenyl]-1H-pyrazole-4-carboxylate] | – | – | – | > 20 | 0.042 | – | –
9 | O=C(O)c1ccc(-n2cc(C(=O)Nc3cccc(F)c3)c(-c3ccc(O)cc3)n2)cc1 [Compound 306, 4-{4-[(3-Fluorophenyl)carbamoyl]-3-(4-hydroxyphenyl)-1H-pyrazol-1-yl}benzoic acid] | – | – | – | 9.62 | 0.15 | – | –
10 | O=C(O)c1ccc(-n2cc(C(=O)Nc3ccccc3O)c(-c3ccc(O)cc3)n2)cc1 [Compound 307, 4-{3-(4-Hydroxyphenyl)-4-[(2-hydroxyphenyl)carbamoyl]-1H-pyrazol-1-yl}benzoic acid] | – | – | – | > 20 | 0.25 | – | –
11 | Cn1cccc1C(=O)N1CCN(c2ccc(NC(=O)C(Cl)Cl)c(N3CCCCCC3)c2)CC1 [Compound 381, {4-[4-Dichloroacetamido-3-(azepan-1-yl)phenyl]piperazin-1-yl}(1-methyl-1H-pyrrol-2-yl)methanone] | – | 18.5 | – | – | – | 0.059 | > 5
12 | Methyl 4-{4-[(2-hydroxyphenyl)carbamoyl]-[4-(methylsulfonyl)phenyl]-1H-pyrazol-1-yl} benzoate [Compound 274] | – | 0.131 | – | 2.23 | 0.008 | – | –
